These results are taken from ChEMBL document CHEMBL1125573 (J Med Chem, 1992).

In assay [1] the target is T1, D(2) dopamine receptor (Rattus norvegicus, UniProt P61169). The assay is described as follows: Displacement of [3H]spiperone from dopamine receptor D2. In general terms: Loss of bound radioactivity is the signal in a displacement assay; it reports binding, not function.
The target of assay [2] is Serotonin 2 (5-HT2) receptor (Rattus norvegicus, UniProt P30994+P08909+P14842). Briefly: The compound was tested in vitro for binding affinity towards 5-hydroxytryptamine 2 receptor by displacing [125]I-LSD radioligand. Format: protein assay.
The target of assay [3] is Dopamine D2 receptor/Serotonin 2 (5-HT2) receptor (Rattus norvegicus) (UniProt P61169+P30994+P08909+P14842). The assay is described as follows: Relative binding affinity for dopamine D2 and 5-HT2 receptors. Format: protein assay.
Sequence of Dopamine D2 receptor/Serotonin 2 (5-HT2) receptor (Rattus norvegicus) (P08909 whole entry, looked up): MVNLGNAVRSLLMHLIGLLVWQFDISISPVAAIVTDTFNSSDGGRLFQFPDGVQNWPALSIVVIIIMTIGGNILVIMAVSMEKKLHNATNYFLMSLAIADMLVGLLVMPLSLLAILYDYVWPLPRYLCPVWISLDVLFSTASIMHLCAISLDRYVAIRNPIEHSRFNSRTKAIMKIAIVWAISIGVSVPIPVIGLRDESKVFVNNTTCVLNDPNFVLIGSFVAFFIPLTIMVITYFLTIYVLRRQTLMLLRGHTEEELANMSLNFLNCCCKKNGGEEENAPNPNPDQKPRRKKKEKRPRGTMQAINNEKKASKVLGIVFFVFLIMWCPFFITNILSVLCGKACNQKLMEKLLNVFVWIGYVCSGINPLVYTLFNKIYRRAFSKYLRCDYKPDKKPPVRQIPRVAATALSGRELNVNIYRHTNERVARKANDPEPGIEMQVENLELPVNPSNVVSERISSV
Sequence of Dopamine D2 receptor/Serotonin 2 (5-HT2) receptor (Rattus norvegicus) (P14842 whole entry, looked up): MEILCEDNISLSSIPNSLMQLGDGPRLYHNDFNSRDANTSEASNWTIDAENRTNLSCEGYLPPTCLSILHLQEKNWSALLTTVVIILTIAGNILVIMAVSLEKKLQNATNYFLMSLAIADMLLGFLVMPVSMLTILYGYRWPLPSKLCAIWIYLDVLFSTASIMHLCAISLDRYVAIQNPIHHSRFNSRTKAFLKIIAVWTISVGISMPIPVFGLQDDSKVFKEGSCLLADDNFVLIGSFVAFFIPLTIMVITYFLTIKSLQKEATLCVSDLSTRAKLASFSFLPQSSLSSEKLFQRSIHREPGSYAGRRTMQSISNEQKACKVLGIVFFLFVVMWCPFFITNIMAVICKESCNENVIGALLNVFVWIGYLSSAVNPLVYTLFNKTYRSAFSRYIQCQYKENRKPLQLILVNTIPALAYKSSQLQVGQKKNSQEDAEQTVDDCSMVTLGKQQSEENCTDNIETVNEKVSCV
Sequence of Dopamine D2 receptor/Serotonin 2 (5-HT2) receptor (Rattus norvegicus) (P30994 whole entry, looked up): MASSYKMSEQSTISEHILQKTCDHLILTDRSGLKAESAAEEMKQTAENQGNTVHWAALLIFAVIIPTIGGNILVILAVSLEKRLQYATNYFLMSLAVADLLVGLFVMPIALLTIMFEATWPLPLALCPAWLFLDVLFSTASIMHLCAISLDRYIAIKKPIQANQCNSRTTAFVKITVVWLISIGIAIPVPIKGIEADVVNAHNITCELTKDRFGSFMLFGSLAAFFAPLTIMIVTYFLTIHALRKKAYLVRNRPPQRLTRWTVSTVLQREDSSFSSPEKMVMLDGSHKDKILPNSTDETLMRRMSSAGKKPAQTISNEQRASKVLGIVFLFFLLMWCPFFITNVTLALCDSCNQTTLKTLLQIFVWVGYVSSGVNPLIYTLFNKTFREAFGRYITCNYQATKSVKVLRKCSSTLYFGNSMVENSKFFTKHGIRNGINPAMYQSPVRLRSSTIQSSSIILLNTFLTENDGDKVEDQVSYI
Sequence of Dopamine D2 receptor/Serotonin 2 (5-HT2) receptor (Rattus norvegicus) (P61169 whole entry, looked up): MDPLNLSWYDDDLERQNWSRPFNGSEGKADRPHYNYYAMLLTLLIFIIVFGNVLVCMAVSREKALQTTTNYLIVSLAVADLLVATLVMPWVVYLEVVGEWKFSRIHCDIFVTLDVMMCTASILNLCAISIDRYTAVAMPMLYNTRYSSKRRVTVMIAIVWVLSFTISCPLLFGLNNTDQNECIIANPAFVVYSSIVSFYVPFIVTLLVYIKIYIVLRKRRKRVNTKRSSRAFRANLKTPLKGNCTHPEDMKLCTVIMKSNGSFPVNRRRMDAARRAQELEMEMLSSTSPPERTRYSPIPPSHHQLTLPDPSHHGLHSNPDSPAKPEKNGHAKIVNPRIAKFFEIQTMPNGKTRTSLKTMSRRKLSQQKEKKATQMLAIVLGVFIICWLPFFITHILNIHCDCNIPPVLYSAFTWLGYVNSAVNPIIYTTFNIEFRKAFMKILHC
Assay [4] deals with T1, D(2) dopamine receptor. Briefly: Binding affinity towards Dopamine receptor D2 by displacing [3H]spiperone.

T1 sequence (P61169 whole entry): as the sequence (P61169 whole entry, looked up) above

As a reminder, the Ki is a measure of affinity in units of concentration, obtained from inhibition or displacement. For `O=C(CCCN1CCC2(CC1)C(=O)N(CCc1ccccc1)CN2c1ccccc1)c1ccc(F)cc1`, the Ki is 35 pM at D(2) dopamine receptor [1] and 1000 pM in assay [2]. For the same molecule, in assay [3], the Ratio came to 29.

Regarding `O=C(CCCN1CCC2(CC1)C(=O)N(Cc1ccc([N+](=O)[O-])cc1)CN2c1ccccc1)c1ccc(F)cc1`, the figures for the Ki (on D(2) dopamine receptor [4]; in assay [2]) were 119 pM and 14000 pM, respectively.

With `Cc1ccccc1CN1CN(c2ccccc2)C2(CCN(CCCC(=O)c3ccc(F)cc3)CC2)C1=O`, the Ki on D(2) dopamine receptor [1] was 33 pM; in assay [2], 9600 pM. Besides, the Ratio in assay [3] is 290.

Consider `CCCCN1CN(c2ccccc2)C2(CCN(CCCC(=O)c3ccc(F)cc3)CC2)C1=O`, for which the inhibition constant (Ki) is 36 pM on D(2) dopamine receptor [1] and 410 pM in assay [2]. Further, in assay [3], the Ratio worked out at 11.

As to `O=C(CCCN1CCC2(CC1)C(=O)N(Cc1ccccc1)CN2c1ccccc1)c1ccc(F)cc1`, the Ki at D(2) dopamine receptor [1] came to 23 pM; in assay [2], 3200 pM. For the same molecule, the Ratio in assay [3] was determined as 140.

For the molecule `COc1ccccc1CN1CN(c2ccccc2)C2(CCN(CCCC(=O)c3ccc(F)cc3)CC2)C1=O`, the Ki on D(2) dopamine receptor [4] is 47 pM; in assay [2] it was 1900 pM.

`CCCN1CN(c2ccccc2)C2(CCN(CCCC(=O)c3ccc(F)cc3)CC2)C1=O`: the Ki is 29 pM at D(2) dopamine receptor [1] and 96 pM in assay [2]. Also, in assay [3], the Ratio was determined as 3.3.

For the molecule `O=C(CCCN1CCC2(CC1)C(=O)N(Cc1ccc(I)cc1)CN2c1ccccc1)c1ccc(F)cc1`, the inhibition constant (Ki) at D(2) dopamine receptor [4] was determined as 213 pM; in assay [2], 89000 pM.

Consider `CC(C)CN1CN(c2ccccc2)C2(CCN(CCCC(=O)c3ccc(F)cc3)CC2)C1=O`, for which the values for the inhibition constant Ki (on D(2) dopamine receptor [1]; in assay [2]) were 39 pM and 130 pM, respectively. For the same molecule, the Ratio in assay [3] came out at 3.3.

On to `COc1ccc(CN2CN(c3ccccc3)C3(CCN(CCCC(=O)c4ccc(F)cc4)CC3)C2=O)cc1`, for which the Ki at D(2) dopamine receptor [4] is 87 pM; in assay [2] it was 12000 pM.

For the molecule `O=C(CCCN1CCC2(CC1)C(=O)N(Cc1ccccc1I)CN2c1ccccc1)c1ccc(F)cc1`, the figures for the Ki (at D(2) dopamine receptor [4]; in assay [2]) were 63 pM and 19000 pM, respectively.

With `O=C(CCCN1CCC2(CC1)C(=O)N(Cc1ccccc1F)CN2c1ccccc1)c1ccc(F)cc1`, the inhibition constant Ki amounted to 43 pM on D(2) dopamine receptor [1] and 4400 pM in assay [2]. For the same molecule, the Ratio in assay [3] was 100.

As for `CC(C)CCN1CN(c2ccccc2)C2(CCN(CCCC(=O)c3ccc(F)cc3)CC2)C1=O`, the inhibition constant (Ki) on D(2) dopamine receptor [1] was 63 pM; in assay [2], 1300 pM. In addition, in assay [3], the Ratio worked out at 21.

In the case of `CCCCCN1CN(c2ccccc2)C2(CCN(CCCC(=O)c3ccc(F)cc3)CC2)C1=O`, the inhibition constant Ki on D(2) dopamine receptor [1] worked out at 62 pM; in assay [2], 1100 pM. The Ratio in assay [3] stood at 18.

For the molecule `CCN1CN(c2ccccc2)C2(CCN(CCCC(=O)c3ccc(F)cc3)CC2)C1=O`, the inhibitory constant (Ki) on D(2) dopamine receptor [4] was determined as 57 pM; in assay [2], 310 pM.

For the molecule `O=C(CCCN1CCC2(CC1)C(=O)N(Cc1ccccc1[N+](=O)[O-])CN2c1ccccc1)c1ccc(F)cc1`, the inhibitory constant (Ki) is 120 pM on D(2) dopamine receptor [4] and 680 pM in assay [2].

With `O=C(CCCN1CCC2(CC1)C(=O)N(Cc1ccc(F)cc1)CN2c1ccccc1)c1ccc(F)cc1`, the inhibition constant (Ki) on D(2) dopamine receptor [1] is 69 pM; in assay [2] it was 21000 pM. Moreover, in assay [3], the Ratio stood at 300.

Consider `Cc1ccc(CN2CN(c3ccccc3)C3(CCN(CCCC(=O)c4ccc(F)cc4)CC3)C2=O)cc1`, for which the Ki on D(2) dopamine receptor [4] is 67 pM; in assay [2], 37000 pM.

As to `O=C(CCCN1CCC2(CC1)C(=O)N(Cc1cccc(F)c1)CN2c1ccccc1)c1ccc(F)cc1`, the Ki on D(2) dopamine receptor [1] is 23 pM; in assay [2], 5300 pM. Besides, the Ratio in assay [3] was 230.

Consider `CN1CN(c2ccccc2)C2(CCN(CCCC(=O)c3ccc(F)cc3)CC2)C1=O` [MESPIPERONE], for which the Ki at D(2) dopamine receptor [4] came out at 118 pM; in assay [2], 550 pM.
